Assay results published in article PMC10649247, “Rapid Colloidal Gold Immunoassay for Pharmacokinetic Evaluation of Vancomycin in the Cerebrospinal Fluid and Plasma of Beagle Dogs” (Sensors (Basel, Switzerland), 2023).
Counter-ions that a name gives are not always drawn.

Legend:
[1] = test system: VAN antibodies (monoclonal antibodies derived from mouse ascites); assay: Colloidal gold competitive immunoassay test strip (calibration curve and cross-reactivity); assay type: binding; details: for CR (%) = [IC50 of VAN/IC50 of the tested compound] × 100%: cross-reactivity of the colloidal gold test strip; for IC50 (ng/mL), cross-reactivity test: compounds at 0, 0.1, 1, 10, 100, 1000 and 10,000 ng/mL
Description: Colloidal gold nanoparticles, integral for inducing a visible color change at the test line of the assay strips, were synthesized by boiling 100 mL of a 0.01% HAuCl4 aqueous solution, followed by the addition of 1% sodium citrate aqueous solution [46, 47, 48]. […] Subsequently, VAN antibodies were conjugated to these gold nanoparticles. The VAN antibodies used were monoclonal antibodies derived from mouse ascites with a molecular weight of 150 kD. They were purchased from Shenzhen KeJie Industrial Development Co., Ltd. (Shenzhen, China). The efficacy of this conjugation relied on a trifecta of forces: ionic attractions between the negatively charged gold particles and the positively charged proteins, hydrophobic interactions, and sulfur bonds, particularly from thiol groups that linked two regions of the Fc segment of the antibody to the gold surface.
A sequence of critical steps must be followed for fabricating colloidal gold immunochromatographic test strips. Initially, a substrate, typically comprising paper or a film, was precoated with antibodies specifically tailored for detecting the target molecule. Subsequently, colloidal gold nanoparticles were synthesized by reducing gold salts and coupled with antibodies. This coupling was facilitated by the combination of ionic, hydrophobic, and sulfur bond interactions. The resultant antibody-labeled colloidal gold solution was then applied to the designated test line area on the substrate. Then, a control line was established to validate the operational integrity of the strip. Following these applications, the strip underwent a drying process, was trimmed to manageable dimensions, and was hermetically sealed in protective packaging to mitigate the risk of environmental contamination.
The intensity of the color on the test line indicated the signal value. We quantified this signal using a smartphone camera in combination with the ImageJ software (Fiji ImageJ for Mac, 2.3.0 version). […] We used ImageJ to extract the gray values from lines drawn perpendicular to both the control and test lines. […] Therefore, the effective signal, represented as B, is determined by the absolute difference in gray value between the test line and its adjacent area.
The test line is coated with a competitive VAN–BSA antigen, and the control line is coated with […]. Upon application of the sample to the sample pad, the sample flows through the colloidal gold pad to interact with the gold-labeled antibodies. It then progresses through the test and control lines before being absorbed into the absorbent paper. The appearance of a visible line in the test area signifies a negative result for VAN (Figure 1(b1)). […] Regardless of the presence or absence of VAN, a red control line should always appear when the test is operating correctly. Otherwise, the results are invalid. Figure 1c depicts the four scenarios that may arise during testing.
Under optimized assay conditions, we used in-house-prepared VAN standard samples to validate the performance metrics of the test strips. The concentrations of the standard samples were 0, 1, 2, 4, 8, 16, 32, 64, 128, 256, 512, and 1024 ng/mL. For the analysis, we applied 4–5 drops of each sample onto the test strips and allowed them to air-dry for 10 min. We observed an inverse correlation between the VAN concentration and the test line signal intensity. We then proceeded to construct a calibration curve to elucidate the correlation between the optical signals (designated as B/B0) and the respective VAN concentrations. In this context, B represents the optical signals for each standard concentration of VAN, while B0 signifies the optical signal at a zero-concentration baseline. […]

[2] = Pharmacokinetic study of VAN in plasma of beagle dogs (LC-MS); assay type: in vivo; details: single intravenous dose 12 mg/kg, average of three dogs
Description: (§1) Animal Dosing and Sample Collection: The choice of using beagle dogs for the pharmacokinetic studies of VAN in CSF and plasma is driven by their physiological similarities to humans, which make them a suitable model for predicting human pharmacokinetics. Three male beagle dogs, each weighing approximately 11 kg and aged 10 months, were utilized for pharmacokinetic studies. Both the acquisition of the beagle dogs and the sample collection were conducted by Beijing Sinogenetic Biotechnology Co., Ltd. (Beijing, China). The animal protocols employed for this research were reviewed and approved by Beijing Sinogenetic Biotechnology Co., Ltd. (XNY-20230524001). The beagle dogs were anesthetized and subsequently administered a single intravenous dose of a pre-prepared 50 mg/mL VAN hydrochloride solution at a dosage level of 12 mg/kg, with the injection time lasting approximately 2–3 s. CSF and plasma samples were collected at predetermined time points: predose (0 min) and postdose at intervals of 5 min, 10 min, 30 min, 1 h, 2 h, 4 h, 8 h, and 24 h. […]
(§2) An HPLC–MS method was established to precisely quantify VAN levels in CSF and plasma samples collected from beagle dogs. […] The methodological rigor ensured a high degree of specificity and sensitivity in VAN quantification, effectively fulfilling the objectives of this study.

[3] = Pharmacokinetic study of VAN in CSF of beagle dogs (LC-MS); assay type: in vivo; details: single intravenous dose 12 mg/kg, average of three dogs
Description: as §1, §2

NCC[C@H](O)C(=O)N[C@@H]1C[C@H](N)[C@@H](O[C@H]2O[C@H](CN)[C@@H](O)[C@H](O)[C@H]2O)[C@H](O)[C@H]1O[C@H]1O[C@H](CO)[C@@H](O)[C@H](N)[C@H]1O [Amikacin, amikacin]
CR (%) = [IC50 of VAN/IC50 of the tested compound] × 100% [1]: <0.5% | IC50 (ng/mL), cross-reactivity test ([1]; test strip): >10^4 ng/mL

CN[C@H]1C(=O)N[C@@H]2Cc3ccc(cc3)Oc3cc4cc(c3O[C@@H]3O[C@H](C(=O)O)[C@@H](O)[C@H](O)[C@H]3NC(=O)CCCCCCCCC(C)C)Oc3ccc(cc3Cl)[C@@H](O)[C@@H]3NC(=O)[C@H](NC(=O)[C@@H]4NC(=O)[C@@H](NC2=O)c2cc(cc(O)c2Cl)Oc2cc1ccc2O)c1ccc(O)c(c1)-c1c(O[C@H]2O[C@H](CO)[C@@H](O)[C@H](O)[C@@H]2O)cc(O)cc1[C@@H](C(=O)NCCCN(C)C)NC3=O [Dalbavancin, dalbavancin]
CR (%) = [IC50 of VAN/IC50 of the tested compound] × 100% [1]: <0.5% | IC50 (ng/mL), cross-reactivity test ([1]; test strip): >10^4 ng/mL

C[C@@H](O)[C@H]1C(=O)N2C(C(=O)O)=C(S[C@@H]3CN[C@H](C(=O)N(C)C)C3)[C@H](C)[C@H]12 [Meropenem, meropenem]
CR (%) = [IC50 of VAN/IC50 of the tested compound] × 100% [1]: <0.5% | IC50 (ng/mL), cross-reactivity test ([1]; test strip): >10^4 ng/mL

CN[C@H](CC(C)C)C(=O)N[C@H]1C(=O)N[C@@H](CC(N)=O)C(=O)N[C@H]2C(=O)N[C@H]3C(=O)N[C@H](C(=O)N[C@H](C(=O)O)c4cc(O)cc(O)c4-c4cc3ccc4O)[C@H](O[C@H]3C[C@](C)(N)[C@@H](O)[C@H](C)O3)c3ccc(c(Cl)c3)Oc3cc2cc(c3O[C@@H]2O[C@H](CO)[C@@H](O)[C@H](O)[C@H]2O[C@H]2C[C@](C)(NCc3ccc(-c4ccc(Cl)cc4)cc3)[C@@H](O)[C@H](C)O2)Oc2ccc(cc2Cl)[C@H]1O [Oritavancin, oritavancin]
CR (%) = [IC50 of VAN/IC50 of the tested compound] × 100% [1]: <0.5% | IC50 (ng/mL), cross-reactivity test ([1]; test strip): >10^4 ng/mL

CCCCCCCCCCNCCN[C@@]1(C)C[C@H](O[C@H]2[C@H](Oc3c4cc5cc3Oc3ccc(cc3Cl)[C@@H](O)[C@@H](NC(=O)[C@@H](CC(C)C)NC)C(=O)N[C@@H](CC(N)=O)C(=O)N[C@H]5C(=O)N[C@H]3C(=O)N[C@H](C(=O)N[C@H](C(=O)O)c5cc(O)c(CNCP(=O)(O)O)c(O)c5-c5cc3ccc5O)[C@H](O)c3ccc(c(Cl)c3)O4)O[C@H](CO)[C@@H](O)[C@@H]2O)O[C@@H](C)[C@H]1O [Telavancin, telavancin]
CR (%) = [IC50 of VAN/IC50 of the tested compound] × 100% [1]: <0.5% | IC50 (ng/mL), cross-reactivity test ([1]; test strip): >10^4 ng/mL

CN[C@H](CC(C)C)C(=O)N[C@H]1C(=O)N[C@@H](CC(N)=O)C(=O)N[C@H]2C(=O)N[C@H]3C(=O)N[C@H](C(=O)N[C@H](C(=O)O)c4cc(O)cc(O)c4-c4cc3ccc4O)[C@H](O)c3ccc(c(Cl)c3)Oc3cc2cc(c3O[C@@H]2O[C@H](CO)[C@@H](O)[C@H](O)[C@H]2O[C@H]2C[C@](C)(N)[C@H](O)[C@H](C)O2)Oc2ccc(cc2Cl)[C@H]1O [VAN, Vancomycin hydrochloride]
peak concentration of VAN in plasma [2]: 40 µg/mL | concentration of VAN in plasma within ~4 h ([2]; ~4 h post dose): below 1 µg/mL | time at which VAN concentration in CSF reaches its maximum [3]: ~ 2 h | CR (%) = [IC50 of VAN/IC50 of the tested compound] × 100% [1]: 100% | LOD, concentration of VAN giving a 10% inhibition of the maximum absorbance ([1]; test strip calibration curve, read after 10 min, n = 3): 10.3 ng/mL | inhibitory concentration 50% (IC50) from the calibration curve (B/B0 against VAN concentration) ([1]; test strip, standard samples 0-1024 ng/mL, read after 10 min, smartphone/ImageJ gray value, n = 3): 0.0445 µg/mL

teicoplanin
CR (%) = [IC50 of VAN/IC50 of the tested compound] × 100% [1]: <0.5% | IC50 (ng/mL), cross-reactivity test ([1]; test strip): >10^4 ng/mL
